The target in test [1] is T1, phosphorylated ABL1(T315I)(229-499) (Homo sapiens, UniProt P00519, T315I).
T1 construct: The protocol was adapted to generate phosphorylated 10×His-tev-ABL1(T315I)(229-499) for use in the SPR studies; made in house; host or cells: E. coli; autophosphorylated in vitro with ATP/MgCl2
T1 sequence (P00519 229-499 T315I): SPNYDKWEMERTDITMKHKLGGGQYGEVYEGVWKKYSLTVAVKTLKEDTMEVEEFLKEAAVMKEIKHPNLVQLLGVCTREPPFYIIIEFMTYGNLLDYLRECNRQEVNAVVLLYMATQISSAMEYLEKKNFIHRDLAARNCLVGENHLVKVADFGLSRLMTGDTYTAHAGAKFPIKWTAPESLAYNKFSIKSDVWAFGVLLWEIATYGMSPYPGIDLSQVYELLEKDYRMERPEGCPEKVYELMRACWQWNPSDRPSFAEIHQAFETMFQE
The test can be described thus: SPR binding to phosphorylated ABL1(T315I)(229-499). The following applies: Ni-NTA capture of 10xHis-tag. (In general: Surface plasmon resonance follows binding to a sensor surface in real time, without labels.)

The test system of another test is human tumor cells. The following applies: growth of human tumor cells; cited from earlier work.

Among the data in patent US20240165113A1, “METHODS OF TREATMENT FOR LEUKEMIA” (DNA SEQ 2, Inc., priority 2021, published 2024) are Kd and GI50 values, retold here.

Read-outs that look alike come from different tables or passages of the source.

In the case of `Nc1nc(N)c(N=O)c(OCC2CCCCC2)n1` [A-0001, 6-Cyclohexylmethyloxy-5-nitroso-pyrimidine-2,4-diamine], the Kd (usually the concentration at which binding is half-saturated) in test [1] (HBST buffer, read-out: Phosphorylated ABL1(T315I)(229-499) in HBST buffer KD) worked out at 13 µM; in test [1] (PBST buffer, read-out: Phosphorylated ABL1(T315I)(229-499) in PBST buffer KD), 16 µM. The GI50 (as a rule, the concentration giving 50% growth inhibition) in the test with human tumor cells was 10 µM.
